The source of these data is patent publication US20190185518A9, “WARHEAD-CONTAINING PEPTIDOMIMETIC MACROCYCLES AS MODULATORS OF BFL-1” (AILERON Therapeutics, Inc., priority 2017, published 2019).

As a reminder, the pKi is the Ki on a negative log10 scale, so that one unit is a factor of ten.

The structures appear in SMILES notation. pKi: −log10 of the molar value. Starred links: 1 amine or outer side, 2 acyl side, 3 side chain; linkers in the order of their positions; H or OH if unused. Positions of bridges follow the written chain, without caps; N, C: chain ends. Non-standard residues stand in square brackets, D forms with d. Residues, ends and D or L forms follow the SMILES beside them. X1 = CC(C)CCC[C@H](N[*:1])C(=O)[*:2]; R8 = C=CCCCCCC[C@@](C)(N)C(=O)O; S5 = C=CCCC[C@](C)(N)C(=O)O; Ac6c = NC1(C(=O)O)CCCCC1; Ac5c = NC1(C(=O)O)CCCC1

Sequence of Bcl-xL (Q07817 whole entry, species assumed): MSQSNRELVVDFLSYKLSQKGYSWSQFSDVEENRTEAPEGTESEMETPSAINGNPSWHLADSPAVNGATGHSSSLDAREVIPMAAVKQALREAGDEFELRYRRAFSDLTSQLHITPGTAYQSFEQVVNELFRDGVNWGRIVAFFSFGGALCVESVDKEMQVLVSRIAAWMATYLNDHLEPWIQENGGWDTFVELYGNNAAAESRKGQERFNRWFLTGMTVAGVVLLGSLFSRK

The first experiment deals with Mcl-1 (Homo sapiens, UniProt Q07820). The experiment is described as follows: Ki determination for Mcl-1 (BCL-2 family binding spectrum). Conditions: read-out: Ki MCL-1. The text has this: (§1) To assess the binding and affinity of compounds that antagonize the interaction between a peptide and an acceptor protein, a fluorescence polarization assay (FPA) utilizing a fluoresceinated peptidomimetic macrocycle derived from a peptidomimetic precursor sequence is used, for example. The FPA technique measures the molecular orientation and mobility using polarized light and fluorescent tracer. […] A compound that antagonizes the interaction between the fluoresceinated peptidomimetic macrocycle and an acceptor protein will be detected in a competitive binding FPA experiment.
Sequence of Mcl-1 (Q07820 whole entry, species assumed): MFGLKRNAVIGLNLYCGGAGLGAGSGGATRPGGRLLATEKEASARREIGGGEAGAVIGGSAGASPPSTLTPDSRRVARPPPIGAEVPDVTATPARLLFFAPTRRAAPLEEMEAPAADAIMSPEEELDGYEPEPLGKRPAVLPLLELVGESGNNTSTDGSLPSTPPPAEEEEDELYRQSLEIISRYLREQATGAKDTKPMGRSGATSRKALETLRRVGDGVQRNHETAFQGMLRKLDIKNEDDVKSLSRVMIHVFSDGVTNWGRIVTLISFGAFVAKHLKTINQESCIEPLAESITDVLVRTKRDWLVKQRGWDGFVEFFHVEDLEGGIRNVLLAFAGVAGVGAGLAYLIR
Antagonist binding activity is measured, for example, by fluorescence polarization on a luminescence spectrophotometer (e.g. Perkin-Elmer LS50B). Kd values may be determined by nonlinear regression analysis using, for example, Graphpad Prism software (GraphPad Software, Inc., San Diego, Calif.).
On to `CC[C@H](C)[C@H](NC(C)=O)C(=O)N[C@@H](Cc1c[nH]c2ccccc12)C(=O)N[C@H](C(=O)N[C@@H](C)C(=O)N[C@@H](C)C(=O)N[C@@H](C)C(=O)N[C@@H](CC(C)C)C(=O)N[C@@H](CCCNC(=N)N)C(=O)N[C@]1(C)CCCCCCC=CCCC[C@@](C)(C(=O)N[C@@H](Cc2ccc(O)cc2)C(=O)N[C@@H](Cc2ccc(O)cc2)C(=O)N[C@@H](Cc2c[nH]cn2)C(N)=O)NC(=O)[C@H](CC(N)=O)NC(=O)[C@H](Cc2ccccc2)NC(=O)[C@H](C)NC(=O)[C@H](CC(=O)O)NC(=O)CNC(=O)[C@H]([C@@H](C)CC)NC1=O)[C@@H](C)CC` [compound 1764] (Ac-IWIAAALR[R8]IGDAFN[S5]YYH-NH2; staple 9-16), for which the pKi was 7.97.

As for `CC[C@H](C)[C@H](NC(C)=O)C(=O)N[C@@H](Cc1c[nH]c2ccccc12)C(=O)N[C@H](C(=O)N[C@@H](C)C(=O)N[C@@H](C)C(=O)N[C@@H](C)C(=O)N[C@@H](CC(C)C)C(=O)N[C@@H](CCCNC(=N)N)C(=O)N[C@]1(C)CCCCCCC=CCCC[C@@](C)(C(=O)N[C@@H](Cc2ccc(O)cc2)C(=O)N[C@@H](Cc2ccc(O)cc2)C(=O)N[C@@H](CCCCN)C(N)=O)NC(=O)[C@H](CC(N)=O)NC(=O)[C@H](Cc2ccccc2)NC(=O)[C@H](C)NC(=O)[C@H](CC(=O)O)NC(=O)CNC(=O)[C@H]([C@@H](C)CC)NC1=O)[C@@H](C)CC` [compound 1766] (Ac-IWIAAALR[R8]IGDAFN[S5]YYK-NH2; staple 9-16), the negative logarithm of the Ki (pKi) is 8.18.

Take `CC[C@H](C)[C@H](NC(C)=O)C(=O)N[C@@H](Cc1c[nH]c2ccccc12)C(=O)N[C@H](C(=O)N[C@@H](C)C(=O)N[C@@H](CCC(N)=O)C(=O)N[C@@H](C)C(=O)N[C@@H](CC(C)C)C(=O)N[C@@H](CCCNC(=N)N)C(=O)N[C@]1(C)CCCCCCC=CCCCC2(CCCC=CCCC[C@](C)(C(=O)N[C@@H](C)C(N)=O)NC(=O)[C@H](C)NC(=O)[C@H](Cc3ccc(O)cc3)NC(=O)[C@H](Cc3ccc(O)cc3)NC2=O)NC(=O)[C@H](CC(N)=O)NC(=O)[C@H](Cc2ccccc2)NC(=O)[C@H](CCC(=O)O)NC(=O)[C@H](CC(=O)O)NC(=O)CNC(=O)[C@H]([C@@H](C)CC)NC1=O)[C@@H](C)CC` (stereo partly drawn) [compound 1784]: the pKi was 7.94.

The next experiment concerns the target Bcl-xL (Homo sapiens, UniProt Q07817). The experiment is described as follows: Ki determination for Bcl-xL (BCL-2 family binding spectrum). The following applies: read-out: Ki BCL-XL.
From the text: as §1
For example, putative antagonist compounds (1 nM to 1 mM) and a fluoresceinated peptidomimetic macrocycle (25 nM) are incubated with the acceptor protein (50 nM) in binding buffer (140 mM NaCl, 50 mM Tris-HCL, pH 7.4) for 30 minutes at room temperature. Antagonist binding activity is measured, for example, by fluorescence polarization on a luminescence spectrophotometer (e.g. Perkin-Elmer LS50B). Kd values may be determined by nonlinear regression analysis using, for example, Graphpad Prism software (GraphPad Software, Inc., San Diego, Calif.).
For `CC[C@H](C)[C@H](NC(C)=O)C(=O)N[C@@H](Cc1c[nH]c2ccccc12)C(=O)N[C@H](C(=O)N[C@@H](C)C(=O)N[C@@H](CCC(N)=O)C(=O)N[C@@H](C)C(=O)N[C@@H](CC(C)C)C(=O)N[C@@H](CCCNC(=N)N)C(=O)N[C@]1(C)CCCCCCC=CCCC[C@@](C)(C(=O)N[C@@H](Cc2ccc(O)cc2)C(=O)N[C@@H](Cc2ccc(O)cc2)C(=O)N[C@@H](C)C(N)=O)NC(=O)[C@H](C)NC(=O)[C@H](Cc2ccccc2)NC(=O)[C@H](CCC(=O)O)NC(=O)[C@H](CC(=O)O)NC(=O)CNC(=O)[C@H]([C@@H](C)CC)NC1=O)[C@@H](C)CC` [compound 1643] (Ac-IWIAQALR[R8]IGDEFA[S5]YYA-NH2; staple 9-16), the pKi was 7.81.

As for `CC[C@H](C)[C@H](NC(C)=O)C(=O)N[C@@H](Cc1c[nH]c2ccccc12)C(=O)N[C@H](C(=O)N[C@@H](C)C(=O)N[C@@H](C)C(=O)N[C@@H](C)C(=O)N[C@@H](CC(C)C)C(=O)N[C@@H](CCCNC(=N)N)C(=O)N[C@]1(C)CCCCCCC=CCCC[C@@](C)(C(=O)N[C@@H](Cc2ccc(O)cc2)C(=O)N[C@@H](Cc2ccc(O)cc2)C(=O)N[C@@H](C)C(N)=O)NC(=O)[C@H](CC(N)=O)NC(=O)[C@H](Cc2ccccc2)NC(=O)[C@H](C)NC(=O)[C@H](CC(=O)O)NC(=O)CNC(=O)[C@H]([C@@H](C)CC)NC1=O)[C@@H](C)CC` [compound 1653] (Ac-IWIAAALR[R8]IGDAFN[S5]YYA-NH2; staple 9-16), the pKi was 7.59.

On to `CC[C@H](C)[C@H](NC(C)=O)C(=O)N[C@@H](Cc1c[nH]c2ccccc12)C(=O)N[C@H](C(=O)N[C@@H](C)C(=O)N[C@@H](CCC(N)=O)C(=O)N[C@@H](C)C(=O)N[C@@H](C)C(=O)N[C@@H](CCCNC(=N)N)C(=O)N[C@]1(C)CCCCCCC=CCCC[C@@](C)(C(=O)N[C@@H](Cc2ccc(O)cc2)C(=O)N[C@@H](Cc2ccc(O)cc2)C(=O)N[C@@H](C)C(N)=O)NC(=O)[C@H](CC(N)=O)NC(=O)[C@H](C)NC(=O)[C@H](C)NC(=O)[C@H](CC(=O)O)NC(=O)CNC(=O)[C@H]([C@@H](C)CC)NC1=O)[C@@H](C)CC` [compound 1664] (Ac-IWIAQAAR[R8]IGDAAN[S5]YYA-NH2; staple 9-16), for which the negative logarithm of the Ki (pKi) was 6.81.

On to `CC[C@H](C)[C@H](NC(C)=O)C(=O)N[C@@H](Cc1c[nH]c2ccccc12)C(=O)N[C@H](C(=O)N[C@@H](C)C(=O)N[C@@H](CCC(N)=O)C(=O)N[C@@H](C)C(=O)N[C@@H](CC(C)C)C(=O)N[C@@H](CCCNC(=N)N)C(=O)N[C@]1(C)CCCCCCC=CCCC[C@@](C)(C(=O)N[C@@H](Cc2ccc(O)cc2)C(=O)N[C@@H](Cc2ccc(O)cc2)C(=O)N[C@@H](C)C(N)=O)NC(=O)[C@H](CC(N)=O)NC(=O)[C@H](Cc2ccccc2)NC(=O)[C@H](C)NC(=O)[C@H](CC(=O)O)NC(=O)[C@H](C)NC(=O)[C@H]([C@@H](C)CC)NC1=O)[C@@H](C)CC` [compound 1665] (Ac-IWIAQALR[R8]IADAFN[S5]YYA-NH2; staple 9-16), for which the pKi was 8.11.

Regarding `CC[C@H](C)[C@H](NC(C)=O)C(=O)N[C@@H](Cc1c[nH]c2ccccc12)C(=O)N[C@H](C(=O)N[C@@H](C)C(=O)N[C@@H](CCC(N)=O)C(=O)N[C@@H](C)C(=O)N[C@@H](CC(C)C)C(=O)N[C@@H](CCCNC(=N)N)C(=O)N[C@]1(C)CCCCCCC=CCCC[C@@](C)(C(=O)N[C@@H](Cc2ccc(O)cc2)C(=O)N[C@@H](Cc2ccc(O)cc2)C(=O)N[C@@H](C)C(N)=O)NC(=O)[C@H](CC(N)=O)NC(=O)[C@H](Cc2ccccc2)NC(=O)[C@H](CCC(N)=O)NC(=O)[C@H](CC(=O)O)NC(=O)CNC(=O)[C@H](Cc2ccccc2)NC1=O)[C@@H](C)CC` [compound 1670] (Ac-IWIAQALR[R8]FGDQFN[S5]YYA-NH2; staple 9-16), the pKi is 7.59.

Turning to `CC[C@H](C)[C@H](NC(C)=O)C(=O)N[C@@H](Cc1c[nH]c2ccccc12)C(=O)N[C@@H](Cc1ccccc1)C(=O)N[C@@H](C)C(=O)N[C@@H](CCC(N)=O)C(=O)N[C@@H](C)C(=O)N[C@@H](CC(C)C)C(=O)N[C@@H](CCCNC(=N)N)C(=O)N[C@]1(C)CCCCCCC=CCCC[C@@](C)(C(=O)N[C@@H](Cc2ccc(O)cc2)C(=O)N[C@@H](Cc2ccc(O)cc2)C(=O)N[C@@H](C)C(N)=O)NC(=O)[C@H](CC(N)=O)NC(=O)[C@H](Cc2ccccc2)NC(=O)[C@H](CCC(N)=O)NC(=O)[C@H](CC(=O)O)NC(=O)CNC(=O)[C@H]([C@@H](C)CC)NC1=O` [compound 1672] (Ac-IWFAQALR[R8]IGDQFN[S5]YYA-NH2; staple 9-16), the negative-log Ki (pKi) was 7.59.

For the compound `CC[C@H](C)[C@H](NC(C)=O)C(=O)N[C@@H](Cc1c[nH]c2ccccc12)C(=O)N[C@H](C(=O)N[C@@H](C)C(=O)N[C@@H](CCC(N)=O)C(=O)N[C@@H](C)C(=O)N[C@@H](CC(C)C)C(=O)N[C@@H](CCCNC(=N)N)C(=O)N[C@]1(C)CCCCCCC=CCCC[C@@](C)(C(=O)N[C@@H](Cc2ccc(O)cc2)C(=O)N[C@@H](Cc2ccc(O)cc2)C(=O)N[C@@H](C)C(N)=O)NC(=O)[C@H](CC(N)=O)NC(=O)[C@H](Cc2ccccc2)NC(=O)[C@H](C)NC(=O)[C@H](CC(=O)O)NC(=O)CNC(=O)[C@H](CCCC(C)C)NC1=O)[C@@H](C)CC` [compound 1702] (Ac-IWIAQALR[R8][X1]GDAFN[S5]YYA-NH2; staple 9-16), the pKi is 8.40.

With `CC[C@H](C)[C@H](NC(C)=O)C(=O)N[C@@H](Cc1c[nH]c2ccccc12)C(=O)NC1(C(=O)N[C@@H](C)C(=O)N[C@@H](CCC(N)=O)C(=O)N[C@@H](C)C(=O)N[C@@H](CC(C)C)C(=O)N[C@@H](CCCNC(=N)N)C(=O)N[C@]2(C)CCCCCCC=CCCC[C@@](C)(C(=O)N[C@@H](Cc3ccc(O)cc3)C(=O)N[C@@H](Cc3ccc(O)cc3)C(=O)N[C@@H](C)C(N)=O)NC(=O)[C@H](CC(N)=O)NC(=O)[C@H](Cc3ccccc3)NC(=O)[C@H](C)NC(=O)[C@H](CC(=O)O)NC(=O)CNC(=O)[C@H]([C@@H](C)CC)NC2=O)CCCCC1` [compound 1714] (Ac-IW[Ac6c]AQALR[R8]IGDAFN[S5]YYA-NH2; staple 9-16), the negative logarithm of the Ki (pKi) was 8.11.

Consider `CC[C@H](C)[C@H](NC(C)=O)C(=O)N[C@@H](Cc1c[nH]c2ccccc12)C(=O)NC1(C(=O)N[C@@H](C)C(=O)N[C@@H](CCC(N)=O)C(=O)N[C@@H](C)C(=O)N[C@@H](CC(C)C)C(=O)N[C@@H](CCCNC(=N)N)C(=O)N[C@]2(C)CCCCCCC=CCCC[C@@](C)(C(=O)N[C@@H](Cc3ccc(O)cc3)C(=O)N[C@@H](Cc3ccc(O)cc3)C(=O)N[C@@H](C)C(N)=O)NC(=O)[C@H](CC(N)=O)NC(=O)[C@H](Cc3ccccc3)NC(=O)[C@H](C)NC(=O)[C@H](CC(=O)O)NC(=O)CNC(=O)[C@H]([C@@H](C)CC)NC2=O)CCCC1` [compound 1715] (Ac-IW[Ac5c]AQALR[R8]IGDAFN[S5]YYA-NH2; staple 9-16), for which the pKi is 8.08.
